Counter-ions that a name gives are not always drawn.
Assays:
Experiment in all cases: automated whole-cell patch clamp (PatchXpress), peak current
Assay type in all cases: cell-based
[1] = biological target: T1, Kv 1.1 (Homo sapiens, UniProt Q09470)
T1 construct: gene KCNA1; cDNA stably transfected in HEK293 cells; expressed alone (homotetramer)
Excerpt: automated whole-cell patch clamp (PatchXpress), peak current on Kv 1.1

[2] = biological target: T2, Kv 1.2 (Homo sapiens, UniProt P16389)
T2 construct: gene KCNA2; cDNA stably transfected in HEK293 cells; expressed alone (homotetramer)
T2 sequence (P16389 whole entry): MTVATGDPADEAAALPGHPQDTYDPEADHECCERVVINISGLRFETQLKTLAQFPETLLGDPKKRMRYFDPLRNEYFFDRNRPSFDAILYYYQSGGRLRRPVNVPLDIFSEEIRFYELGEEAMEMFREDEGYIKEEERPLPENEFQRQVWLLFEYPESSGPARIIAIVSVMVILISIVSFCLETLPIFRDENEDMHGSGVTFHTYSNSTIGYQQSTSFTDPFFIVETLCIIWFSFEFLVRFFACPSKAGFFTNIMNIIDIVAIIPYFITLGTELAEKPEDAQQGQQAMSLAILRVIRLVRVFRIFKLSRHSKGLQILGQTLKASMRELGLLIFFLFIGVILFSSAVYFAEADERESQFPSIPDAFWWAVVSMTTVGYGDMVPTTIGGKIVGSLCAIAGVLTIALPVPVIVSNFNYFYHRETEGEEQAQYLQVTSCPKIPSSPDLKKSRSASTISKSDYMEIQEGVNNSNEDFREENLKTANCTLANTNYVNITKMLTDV
Excerpt: automated whole-cell patch clamp (PatchXpress), peak current on Kv 1.2

[3] = biological target: T3, Kv 1.4 (Homo sapiens, UniProt P22459)
T3 construct: gene KCNA4; cDNA stably transfected in HEK293 cells; expressed alone (homotetramer)
T3 sequence (P22459 whole entry): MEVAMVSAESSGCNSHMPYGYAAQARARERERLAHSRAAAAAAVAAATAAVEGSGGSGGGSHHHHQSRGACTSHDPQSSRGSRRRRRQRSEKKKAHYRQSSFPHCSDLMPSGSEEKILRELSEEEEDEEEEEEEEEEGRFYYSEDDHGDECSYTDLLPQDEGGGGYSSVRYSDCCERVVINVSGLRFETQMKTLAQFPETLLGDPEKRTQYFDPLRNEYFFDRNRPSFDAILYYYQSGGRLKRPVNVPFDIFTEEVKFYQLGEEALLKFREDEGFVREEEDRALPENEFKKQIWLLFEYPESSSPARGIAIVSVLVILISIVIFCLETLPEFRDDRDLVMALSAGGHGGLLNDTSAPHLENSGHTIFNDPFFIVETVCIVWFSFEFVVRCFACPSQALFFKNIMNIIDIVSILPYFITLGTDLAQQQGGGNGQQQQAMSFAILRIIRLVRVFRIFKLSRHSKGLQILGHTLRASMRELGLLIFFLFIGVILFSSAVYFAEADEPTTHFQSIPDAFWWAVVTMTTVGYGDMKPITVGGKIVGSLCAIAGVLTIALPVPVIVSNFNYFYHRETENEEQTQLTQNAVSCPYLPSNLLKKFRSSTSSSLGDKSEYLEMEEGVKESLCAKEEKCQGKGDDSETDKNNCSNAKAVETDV
Excerpt: automated whole-cell patch clamp (PatchXpress), peak current on Kv 1.4

T1 sequence (Q09470 whole entry): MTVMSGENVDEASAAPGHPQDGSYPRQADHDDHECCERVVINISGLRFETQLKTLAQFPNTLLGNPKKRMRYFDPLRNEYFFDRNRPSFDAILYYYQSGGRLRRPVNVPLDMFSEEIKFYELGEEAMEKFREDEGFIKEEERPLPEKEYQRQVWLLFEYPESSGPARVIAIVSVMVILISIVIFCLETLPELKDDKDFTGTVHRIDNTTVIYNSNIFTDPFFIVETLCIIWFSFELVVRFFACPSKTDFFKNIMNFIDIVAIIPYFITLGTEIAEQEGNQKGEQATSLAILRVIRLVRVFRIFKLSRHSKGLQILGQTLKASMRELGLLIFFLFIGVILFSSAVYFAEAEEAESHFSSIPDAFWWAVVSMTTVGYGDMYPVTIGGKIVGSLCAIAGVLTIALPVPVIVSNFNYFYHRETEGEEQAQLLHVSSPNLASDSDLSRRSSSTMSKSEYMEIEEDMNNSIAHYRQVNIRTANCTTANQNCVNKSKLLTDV

For `Nc1ccncc1OS(=O)(=O)O` [3-hydroxy-4-aminopyridine sulfate], the IC50 [1] was 30300 µM, the IC50 [2] was 21400 µM and the IC50 [3] was > 50000 µM.

In the case of `Nc1ccncc1O` [3-hydroxy-4-aminopyridine], the IC50 [1] is reported as 7890 µM, the IC50 [2] is reported as 23700 µM and the IC50 [3] is reported as 23200 µM.

Reference: paper PMC4937658, “Effects of dalfampridine and its metabolites on cloned human potassium channels Kv 1.1, Kv 1.2, and Kv 1.4 expressed in human embryonic kidney cells” (Journal of Drug Assessment, 2013)
